Tests used:
[1] = test system: Colo205-e215 xenograft tumors; assay: Colo205-e215 xenograft, combination with 5-FU; type: in vivo, athymic nude mice; details: h10H5.vX weekly IP; 5-FU 100 mg/kg weekly for first three weeks
Text: (§1) Female nude (nu/nu) and C.B-17 SCID beige mice were obtained from Charles Rivers Laboratories, Inc. (Hollister, Calif.). Animals were about six to eight weeks old and weighed about 25 grams each. Mice were acclimated to study conditions for at least three days before tumor-cell inoculations. The animals were housed in standard rodent micro-isolator cages. Only animals that appeared to be healthy and that were free of obvious abnormalities were used for the study. Each mouse was given a subcutaneous injection of SK-N-AS cells (10 million), SW527 cells (5 million), Colo205 cells (5 million), or A549 cells (5 million) into the dorsal right flank in a volume of 0.2 mL. Data collected from each experimental group were expressed as mean tumor volume±the standard error of the mean (SEM). Tumors were monitored until they reached a mean volume of 130-260 mm3. […] Tumors were measured twice weekly throughout the experiment starting on the first day of treatment. Tumor volumes were measured in two dimensions (length and width) using ULTRA CAL-IV™ calipers (Model 54-10-111, Fred V. Fowler Company, Inc.; Newton, Mass.), and calculated using the formula of: […]
(§2) Tumor-inhibition and body-weight graphs were plotted using […]™ 3.6 software (Synergy Software; Reading, Pa.). […]

A549 tumors = assay: A549 lung-cancer xenograft model; type: in vivo, athymic nude mice; details: h10H5.vX 5 mg/kg IP two times per week; vinorelbine 9 mg/kg weekly for first three weeks
Text: as §1, §2

[2] = target: T1, IGF-1R α- and β-subunit in SK-N-AS cells (Homo sapiens, UniProt P08069); assay: h10H5-induced IGF-1R down-regulation with proteasome or lysosomal protease inhibitors; type: cell-based; details: one hour pretreatment; 30 μM bortezomib or 5 μM pepstatin A and 10 μg/ml leupeptin
T1 construct: h10H5-induced IGF-1R downregulation, SK-N-AS cells were pretreated; endogenous in cells; host or cells: SK-N-AS
Procedure: Both proteasome and lysosome pathways have been implicated in ligand-mediated IGF-1R degradation. To examine whether these pathways contribute to h10H5-induced IGF-1R downregulation, SK-N-AS cells were pretreated with either a combination of 5 μM of pepstatin A and 10 μg/ml of leupeptin or 30 μM of VELCADE® bortezomib for one hour, and subsequently exposed to h10H5 treatment for 1 to 8 hours in the presence of protease or protesome inhibitors. Cell lysates were analyzed for IGF-1R α-subunit and β-subunit by Western blotting. β-actin was used as a loading control. Because the extracellular (ECD) and intracellular (ICD) domains are exposed to different cellular environments during the internalization and trafficking processes, antibodies that specifically react to the α-subunit that is a major part of ECD or the C-terminus of the β-subunit, and therefore a part of ICD, were used for Western blot analysis.

[3] = CHF patients, enalapril in addition to conventional therapy; cited from earlier work

O=c1[nH]cc(F)c(=O)[nH]1 [5-FU, 5-fluorouracil]
% TGI at day 27 [1]: 53%

CCC1=C[C@@H]2CN(C1)Cc1c([nH]c3ccccc13)[C@@](C(=O)OC)(c1cc3c(cc1OC)N(C)[C@H]1[C@@](O)(C(=O)OC)[C@H](OC(C)=O)[C@]4(CC)C=CCN5CC[C@]31[C@@H]54)C2 [vinorelbine]
inhibition of tumor growth (TGI) at day 21 (A549 tumors): 45%

CC(C)C[C@H](NC(=O)[C@H](Cc1ccccc1)NC(=O)c1cnccn1)B(O)O [VELCADE® bortezomib, bortezomib]
effect on h10H5-induced IGF-1R subunit downregulation [2]: more effective in preventing β-subunit downregulation

CCOC(=O)[C@H](CCc1ccccc1)N[C@@H](C)C(=O)N1CCC[C@H]1C(=O)O [enalapril]
reduction of the risk of developing cardiac cachexia [3]: 19%

Reference: patent US20090068110A1, “ANTIBODIES TO INSULIN-LIKE GROWTH FACTOR RECEPTOR” (Genentech, Inc., priority 2006, published 2009)
